Data taken from patent US10227321B2, “Soothing pro-pheromonal composition for mammals” (Melchior Material And Life Science France, priority 2014, dated 2019).
Values belong to the compound of their own block, whether it stands above or below them.

Columns and labels:
[1] = Estimated amounts released into the atmosphere from the thermal diffuser; format: physicochemical; settings: for Daily amount released into the atmosphere: at 100° C.
Protocol: Based on the preceding measurements, we can estimate that the amounts released over the 35-day period by molecules going into each composition are the following (in grams):
By considering that at 100° C., all of product 122:1 decomposes as was shown in Example 3, we can estimate the daily amounts of the various products released into the atmosphere according to the various formulae.

dogs = settings: dog, in vivo; cited from earlier work
[2] = In vitro study of 2M2B release: climatic chamber, gas chromatography; format: physicochemical; settings: solution of Example 2b
Protocol: Conditions A: 1) Solketal/KOH/RI/DMSO/50° C. 2) APTS/MeOH/H2O. Conditions B: 1) Solketal/KOH/RBr/Toluene/DS/2) APTS/MeOH/H2O. Conditions C: 1) CH2Cl2/Et3N/MsCl 2) Solketal/KOH/ROMs/Toluene/DS/Δ3) APTS/MeOH/H2O. GC Method Used: Equipment: GC, Hewlett Packard 5890 Series II Detector FID Column: HP5 30 m, 0.53 mm, 0.88 μm Pressure: 11 psi Injection volume: 1 μL Sample preparation: 4 mg/mL in AcOEt Injector temperature: 270° C. Detector temperature: 280° C. Oven:
The solution prepared in Example 2b is used in a climatic chamber at 100° C. and 30° C. (conditions corresponding either to the temperature of a thermal diffuser or to room temperature). Samples are taken at regular intervals and the disappearance of compound 122:1 and the appearance of C22:1 AKG is measured by gas chromatography. The results are presented in the following table (the percentages are expressed only taking into consideration integration relative to compound 118 and of C18:0 AKG): […]

Daily amount released into the atmosphere ([1]; 2% Formula (2e)): 0.036 mg
Daily amount released into the atmosphere ([1]; 5% Formula (2d)): 36 mg
Daily amount released into the atmosphere ([1]; 10% Formula (2c)): 0.32 mg
SMILES: CC=C(C)C=O [2-Methyl-2-butenal, 2-methyl-2-butenal]
effect on dogs (dogs): has an effect on the heartbeat and the behavior of dogs

amount released over the 35-day period ([1]; from Formula 2c): 0.05 grams
amount released over the 35-day period ([1]; from Formula 2e): 0.0063 grams
amount released over the 35-day period ([1]; from Formula 2d): 0.0063 grams
SMILES: C/C=C(\C)C1OCC(COCCCCCCCCCCCC/C=C\CCCCCCCC)O1 (centres unmarked) [122:1]

% (GC integration relative to compound 118 and C18:0 AKG) ([2]; T = 30° C., 1 d): 0%
% (GC integration relative to compound 118 and C18:0 AKG) ([2]; T = 30° C., 2 d): 0%
% (GC integration relative to compound 118 and C18:0 AKG) ([2]; T = 30° C., 7 d): 0%
% (GC integration relative to compound 118 and C18:0 AKG) ([2]; T = 30° C., 14 d): 0.5%
% (GC integration relative to compound 118 and C18:0 AKG) ([2]; T = 30° C., 21 d): 1%
% (GC integration relative to compound 118 and C18:0 AKG) ([2]; T = 30° C., 28 d): 1%
% (GC integration relative to compound 118 and C18:0 AKG) ([2]; T = 30° C., time 0): 0%
% (GC integration relative to compound 118 and C18:0 AKG) ([2]; T = 100° C., 3 h): 48%
% (GC integration relative to compound 118 and C18:0 AKG) ([2]; T = 100° C., 6 h): 75%
% (GC integration relative to compound 118 and C18:0 AKG) ([2]; T = 100° C., 1 d): 98%
% (GC integration relative to compound 118 and C18:0 AKG) ([2]; T = 100° C., 2 d): 100%
% (GC integration relative to compound 118 and C18:0 AKG) ([2]; T = 100° C., 7 d): 100%
% (GC integration relative to compound 118 and C18:0 AKG) ([2]; T = 100° C., 14 d): 100%
% (GC integration relative to compound 118 and C18:0 AKG) ([2]; T = 100° C., 21 d): 100%
% (GC integration relative to compound 118 and C18:0 AKG) ([2]; T = 100° C., 28 d): 100%
% (GC integration relative to compound 118 and C18:0 AKG) ([2]; climatic chamber, T = 100° C., time 0): 0%
SMILES: CCCCCCCCCCCCCCCCCCOCC(O)CO (centres unmarked) [C18:0 AKG]

Daily amount released into the atmosphere ([1]; 2% Formula (2e)): 0.14 mg
Daily amount released into the atmosphere ([1]; 5% Formula (2d)): 0.14 mg
Daily amount released into the atmosphere ([1]; 10% Formula (2c)): 1.2 mg
SMILES: C/C=C(\C)C1OCC(COCCCCCCCCCCCC/C=C\CCCCCCCC)O1 (centres unmarked) [C22:1 AKG]

Daily amount released into the atmosphere ([1]; 2% Formula (2e)): 5.8 mg
Daily amount released into the atmosphere ([1]; 5% Formula (2d)): 5.1 mg
Daily amount released into the atmosphere ([1]; 10% Formula (2c)): 5.5 mg
amount released over the 35-day period ([1]; from Formula 2c): 0.195 grams
amount released over the 35-day period ([1]; from Formula 2e): 0.2 grams
amount released over the 35-day period ([1]; from Formula 2d): 0.188 grams
SMILES: CCCCC/C=C\C/C=C\CCCCCCCC(=O)O [Linoleic acid]
